Assay results taken from patent US6956037B2, “Benzamide derivatives for the treatment of diseases mediated by cytokines” (AstraZeneca AB, priority 1998, dated 2005).

Legend:
[1] = test system: TNFα production by human peripheral blood mononuclear cells; assay: PBMC test: inhibition of LPS-stimulated TNFα production; format: cell-based
Protocol: The ability of compounds of this invention to inhibit TNFα production was assessed by using human peripheral blood mononuclear cells which synthesise and secrete TNFα when stimulated with lipopolysaccharide.
Peripheral blood mononuclear cells (PBMC) were isolated from heparinised (10 units/ml heparin) human blood by density centrifugation (Lymphoprep™; Nycomed). Mononuclear cells were resuspended in culture medium [RPMI 1640 medium (Gibco) supplemented with 50 units/ml penicillin, 50 μg/ml streptomycin, 2 mM glutamine and 1% heat-inactivated human AB serum (Sigma H-1513)]. Compounds were solubilised in DMSO at a concentration of 50 mM, diluted 1:100 in culture medium and subsequently serial dilutions were made in culture medium containing 1% DMSO. PBMCs (2.4×10^5 cells in 160 μl culture medium) were incubated with 20 μl of varying concentrations of test compound (triplicate cultures) or 20 μl culture medium containing 1% DMSO (control wells) for 30 minutes at 37° C. in a humidified (5% CO2/95% air) incubator (Falcon 3072; 96 well flat-bottom tissue culture plates). […] TNFα levels were determined in each sample using a human TNFα ELISA (see WO92/10190 and Current Protocols in Molecular Biology, vol 2 by Frederick M/Ausbel et al., John Wiley and Sons Inc.). […]

p38α = target: T1, p38α (Homo sapiens, UniProt Q16539); assay: In vitro enzyme assay, p38 kinase inhibition; format: biochemical; settings: read-out: IC50 against p38α
T1 construct: c-myc (N); 6His (N); made in house; host or cells: E. coli (PET vectors)
T1 sequence (Q16539 whole entry): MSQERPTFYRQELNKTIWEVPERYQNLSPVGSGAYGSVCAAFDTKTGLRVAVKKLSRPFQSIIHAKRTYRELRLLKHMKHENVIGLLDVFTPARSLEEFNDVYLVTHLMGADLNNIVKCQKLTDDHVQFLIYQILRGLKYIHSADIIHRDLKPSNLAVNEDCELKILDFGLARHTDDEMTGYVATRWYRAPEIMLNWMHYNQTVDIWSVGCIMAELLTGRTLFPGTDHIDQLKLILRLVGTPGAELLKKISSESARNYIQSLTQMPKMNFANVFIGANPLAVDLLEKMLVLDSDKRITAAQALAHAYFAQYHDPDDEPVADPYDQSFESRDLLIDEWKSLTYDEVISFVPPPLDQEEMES
Protocol: The ability of compounds of the invention to inhibit the enzyme p38 kinase was assessed. Activity of test compounds against each of the p38α and p38β isoforms of the enzyme was determined. […]
Test compounds were solubilised in DMSO and 10 μl of a 1:10 diluted sample in ‘Kinase Buffer’ was added to a well in a Microtiter plate. […] The precipitated protein was phosphorylated by p38 kinase and test compounds were assessed for their ability to inhibit this phosphorylation. The plates were filtered using a Canberra Packard Unifilter and washed with 2% TCA, dried overnight and counted on a Top Count scintillation counter.
Test compounds were tested initially at a single dose and active compounds were retested to allow IC50 values to be determined.

[2] = test system: TNFα production by human whole blood; assay: Human Whole Blood test: inhibition of LPS-stimulated TNFα production; format: cell-based
Protocol: The ability of the compounds of this invention to inhibit TNFα production was also assessed in a human whole blood assay. Human whole blood secretes TNFα when stimulated with LPS. This property of blood forms the basis of an assay which is used as a secondary test for compounds which profile as active in the PBMC test.
Heparinised (10 units/ml) human blood was obtained from volunteers. 160 μl whole blood were added to 96 well round-bottom plates (Corning 25850). Compounds were solubilised and serially diluted in RPMI 1640 medium (Gibco) supplemented with 50 units/ml penicillin 50 μg/ml streptomycin and 2 mM glutamine, as detailed above. 20 μl of each test concentration was added to appropriate wells (triplicate cultures). 20 μl of RPMI 1640 medium supplemented with antibiotics and glutamine was added to control wells. Plates were incubated for 30 minutes at 37° C. (humidified incubator), prior to addition of 20 μl LPS (final concentration 10 μg/ml). RPMI 1640 medium was added to control wells. Six “LPS alone” and four “medium alone” controls were included on each plate. A known TNFα synthesis/secretion inhibitor was included in each test. Plates were incubated for 6 hours at 37° C. (humidified incubator). […] TNFα levels were measured by ELISA (see WO92/10190 and Current Protocols in Molecular Biology, vol 2 by Frederick M. Ausbel et al., John Wiley and Sons Inc.). […]

Structure (SMILES) | melting point | also measured
COCCOc1ccc(C(=O)Nc2cc(NC(=O)c3ccc(C#N)cc3)ccc2C)cc1 [Example 8, N-[5-(4-cyanobenzamido)-2-methylphenyl]-4-(2-methoxyethoxy)benzamide] |  | IC50 [1]: ~3000 nM; IC50 (p38α): ~100 nM
CCCS(=O)(=O)Nc1cccc(C(=O)Nc2cc(NC(=O)c3cccc(N4CCOCC4)c3)ccc2C)c1 [Example 62, N-[2-methyl-5-(3-morpholinobenzamido)phenyl]-3-(N-ethylmethanesulphonylamino)benzamide] | 192 to 193 °C | 
COc1ccc(C(=O)Nc2cc(NC(=O)c3ccc(OCCCN4CCOCC4)cc3)ccc2C)cc1OC [Example 5, Compound No. 3, N-{2-methyl-5-[4-(3-morpholinopropoxy)benzamido]phenyl}-3,4-dimethoxybenzamide] | 148 to 149 °C | 
Cc1ccc(NC(=O)c2cccc(N(C)C)c2)cc1NC(=O)c1cccc(NS(C)(=O)=O)c1 [Example 27, N-[5-(3-dimethylaminobenzamido)-2-methylphenyl]-3-methanesulphonylaminobenzamide] | 239 to 240 °C | 
Cc1ccc(NC(=O)c2cccc(N3CCOCC3)c2)cc1NC(=O)c1cccc(OCCN2CCCC2)c1 [Example 7, Compound No. 19, N-[2-methyl-5-(3-morpholinobenzamido)phenyl]-3-(2-pyrrolidin-1-ylethoxy)benzamide] |  | IC50 [2]: ~6000 nM; IC50 [1]: ~1000 nM; IC50 (p38α): ~100 nM
Cc1ccc(NC(=O)c2cccc(N3CCOCC3)c2)cc1NC(=O)c1cccc(OC2CCNCC2)c1 [Example 25, N-[2-methyl-5-(3-morpholinobenzamido)phenyl]-3-piperidin4-yloxybenzamide] | 162 to 166 °C | 
COc1ccc(C(=O)Nc2cc(NC(=O)c3ccc(N(C)CCCN(C)C)cc3)ccc2C)cc1OC [Example 20, N-{5-[4-(N-(3-dimethylaminopropyl)-N-methylamino)benzamido]-2-methylphenyl}-3,4-dimethoxybenzamide] | 164 to 165 °C | 
COc1ccc(C(=O)Nc2cc(NC(=O)c3ccc(OCCCCl)cc3)ccc2C)cc1OC [Example 3, N-{5-[4-(3-chloropropoxy)benzamido]-2-methylphenyl}-3,4-dimethoxybenzamide] | 186 to 187 °C | 
CCS(=O)(=O)Nc1cccc(C(=O)Nc2ccc(C)c(NC(=O)c3ccc(OC)c(OC)c3)c2)c1 [Example 26, N-{5-[3-(N-methylmethanesulphonylamino)benzamido]-2′-methylphenyl}-3,4-dimethoxybenzamide] | 168 to 169 °C | 
COc1ccc(C(=O)Nc2cc(NC(=O)c3cccc(OCC(=O)O)c3)ccc2C)cc1OC [Example 18, N-[5-(3-carboxymethoxybenzamido)-2-methylphenyl]-3,4-dimethoxybenzamide] | 206 to 207 °C | 
Cc1ccc(NC(=O)c2cccc(N(C)C)c2)cc1NC(=O)c1ccc(N(C)CCCN(C)C)cc1 [Example 36, N-[5-(3-dimethylaminobenzamido)-2-methylphenyl]-4-(3-dimethylamino-N-methylpropylamino)benzamide] | 178 to 179 °C | 
Cc1ccc(NC(=O)c2cccc(N(C)C)c2)cc1NC(=O)c1ccccc1NCCCN1CCOCC1 [Example 35, N-[5-(3-dimethylaminobenzamido)-2-methylphenyl]-2-(3-morpholinopropylamino)benzamide] | 239 to 240 °C | 
COc1ccc(C(=O)Nc2cc(NC(=O)c3cccc(NS(C)(=O)=O)c3)ccc2C)cc1OC [Example 1, N-[5-(3-methanesulphonylaminobenzamido)-2-methylphenyl]-3,4-dimethoxybenzamide] | > 300 °C | 
COc1ccc(C(=O)Nc2cc(NC(=O)c3ccc(OCCN4CCCC4)cc3)ccc2C)cc1OC [Example 4, N-{5-[4-(2-pyrrolidin-1-ylethoxy)benzamido]-2-methylphenyl}-3,4-dimethoxybenzamide] | 165 to 166 °C | 
